Where two headings read alike, the source gives them in different places.
Experiments:
[1] = system: asexual blood stages of Pf W2 (drug resistant); set-up: method as in PMID 29866868, PMID 31998692; conditions: cited from earlier work
[2] = Cytotoxicity (LDH assay) against HepG2 cells; type: cell-based; conditions: human, HepG2 cells (hepatocellular carcinoma)
Description: Cytotoxicity against mammalian hepatocellular carcinoma cells (HepG2 cells) was determined using the lactate dehydrogenase assay (LDH, Biovision Inc., Milpitas, CA, USA). […] Compound working solutions were prepared from 10 mM stock solutions (100% DMSO) in complete DMEM to a final DMSO (Sigma-Aldrich) conc. of <0.1% (vol/vol). […] Data analysis was performed using GraphPad Prism (version 6) software.

[3] = system: early-stage (EG) Pf NF54 gametocytes; set-up: method as in PMID 29866868; conditions: early-stage gametocytes >95% stages II-III; 48 h incubation; ± SEM; cited from earlier work
[4] = Pharmacokinetics and metabolism after iv and po administration; type: in vivo
Description: The plasma concentration-time profiles of the parent compounds and metabolites after administration iv and po to male C57/BL6 mice are presented in Figure 2, Figure 3 and Figure 4. Artemiside was quantifiable up to 24 h in all mice dosed iv and up to 7 h po (lower limit of quantitation LLOQ = 1.6 ng/mL or 0.004 μM) (Figure 2). […] For both artemiside and artemisox, the metabolite artemisone was quantifiable up to 3 h in both the po and iv groups (Figure 2 and Figure 3). Thereby it is confirmed that artemiside is rapidly converted via artemisox into artemisone. Artemisone itself was quantifiable up to three hours post dose (Figure 4). The mean circulating concentrations for the compounds and their metabolites are presented in Table S3a–f in the Supplementary Material 1. The metabolite M1 was also detected upon administration of artemiside, artemisox, and artemisone, but it was not quantified here; chromatograms indicating the presence of M1 are illustrated in Figure S3a–c in the Supplementary Material 1. In addition, the plasma concentration-time curves for artemiside and its metabolites artemisone and M1 following iv and po dosing in the same murine model are presented and discussed in detail elsewhere (cf. Figure 4 in reference).
All work was conducted with prior approval of the animal ethics committee of the University of Cape Town in accordance with the South African National Standards for the Care and Use of Animals for Scientific Purposes and guidelines from the South African Department of Health. The requirements and methods for the pharmacokinetics in vivo involving po and iv drug administration, sample extraction, analyses of samples by LC-MS/MS, and data analyses are described elsewhere. For the animal experiments and formulations, the compounds were dissolved in a 10:60:30 mixture of N,N-dimethylacetamide-polypropylene glycol-polyethylene glycol for intravenous dosing (iv) at 5 mg/kg. For the oral dose (po), compounds were individually dosed as a suspension in 0.5% (w/v) hydroxypropylmethylcellulose in water with 0.2% Tween80 at 50 mg/kg to male C57/BL6 mice (n = 3 for each group). For PK sampling, blood samples were collected at predetermined times (0.08, 0.25, 0.5, 1, 3, 5, 7, and 24 h) for both po and iv dosing via tail bleeding into heparinized tubes, centrifuged, and the plasma samples were stored at −80 °C until extraction. For preparation of samples, the frozen plasma samples were thawed and 15 μL was extracted by liquid–liquid extraction using a universal buffer (pH8) containing 10 ng/mL of the internal standard and ethyl acetate, and the extract was vortexed and centrifuged. Calibration standards and quality controls were extracted following the same procedure. Supernatants were dried down, reconstituted, and injected onto the column for LC-MS/MS analysis using an AB SCIEX 5500 QTRAP instrument coupled to an Agilent 1260 HPLC detection system as previously described.

Structure (SMILES): C[C@H]1[C@H](N2CCS(=O)(=O)CC2)O[C@@H]2O[C@@]3(C)CC[C@H]4[C@H](C)CC[C@@H]1[C@@]24OO3 [Artemisone 7, Artemisone]
- IC50 ([1]; asexual blood stage Pf W2, multidrug resistant, SYBR Green I, ± SEM): 1.6 ± 0.4 nM
- RI = IC50 W2/IC50 NF54 [1]: 1.36
- IC50 at 24 h [2]: > 50000 nM
- IC50 [3]: 1.94 ± 0.11 nM
- Mean iv circulating concentration ([4]; 5 h after iv 5 mg/kg artemisone 7): blq
- Mean iv circulating concentration ([4]; 5 h after iv 5 mg/kg artemisox 6): blq
- Mean po circulating concentration ([4]; 5 h after po 50 mg/kg artemiside 5): blq
- Mean po circulating concentration ([4]; 5 h after po 50 mg/kg artemisone 7): blq
- Mean iv circulating concentration ([4]; 7 h after iv 5 mg/kg artemiside 5): blq
- Mean iv circulating concentration ([4]; 7 h after iv 5 mg/kg artemisone 7): blq
- Mean iv circulating concentration ([4]; 7 h after iv 5 mg/kg artemisox 6): blq
- Mean po circulating concentration ([4]; 7 h after po 50 mg/kg artemiside 5): blq
- Mean po circulating concentration ([4]; 7 h after po 50 mg/kg artemisone 7): blq
- Mean po circulating concentration ([4]; 7 h after po 50 mg/kg artemisox 6): blq
- Mean iv circulating concentration ([4]; 24 h after iv 5 mg/kg artemiside 5): blq
- Mean iv circulating concentration ([4]; 24 h after iv 5 mg/kg artemisone 7): blq
- Mean iv circulating concentration ([4]; 24 h after iv 5 mg/kg artemisox 6): blq
- Mean po circulating concentration ([4]; 24 h after po 50 mg/kg artemiside 5): blq
- Mean po circulating concentration ([4]; 24 h after po 50 mg/kg artemisone 7): blq
- Mean po circulating concentration ([4]; 24 h after po 50 mg/kg artemisox 6): blq
- quantifiable up to, post dose ([4]; artemisone itself dosed, iv 5 mg/kg and po 50 mg/kg (Figure 4)): up to three
- t½ ([4]; iv 5 mg/kg, parent drug, mean ± SD, 5 mg/kg): 23.4 ± 4.8 min
- concentration at 0.08 h ([4]; male, C57/BL6, mouse, plasma, iv, 5 mg/kg, 0.08 h after iv 5 mg/kg artemiside 5, read-out: Mean iv circulating concentration): 117 nM
- concentration at 0.08 h ([4]; male, C57/BL6, mouse, plasma, iv, 5 mg/kg, 0.08 h after iv 5 mg/kg artemisone 7, read-out: Mean iv circulating concentration): 3860 nM
- concentration at 0.08 h ([4]; male, C57/BL6, mouse, plasma, iv, 5 mg/kg, 0.08 h after iv 5 mg/kg artemisox 6, read-out: Mean iv circulating concentration): 1110 nM
- concentration at 0.25 h ([4]; male, C57/BL6, mouse, plasma, iv, 5 mg/kg, 0.25 h after iv 5 mg/kg artemiside 5, read-out: Mean iv circulating concentration): 247 nM
- concentration at 0.25 h ([4]; male, C57/BL6, mouse, plasma, iv, 5 mg/kg, 0.25 h after iv 5 mg/kg artemisone 7, read-out: Mean iv circulating concentration): 2510 nM
- concentration at 0.25 h ([4]; male, C57/BL6, mouse, plasma, iv, 5 mg/kg, 0.25 h after iv 5 mg/kg artemisox 6, read-out: Mean iv circulating concentration): 1400 nM
- concentration at 0.5 h ([4]; male, C57/BL6, mouse, plasma, iv, 5 mg/kg, 0.5 h after iv 5 mg/kg artemiside 5, read-out: Mean iv circulating concentration): 270 nM
- concentration at 0.5 h ([4]; male, C57/BL6, mouse, plasma, iv, 5 mg/kg, 0.5 h after iv 5 mg/kg artemisone 7, read-out: Mean iv circulating concentration): 1720 nM
- concentration at 0.5 h ([4]; male, C57/BL6, mouse, plasma, iv, 5 mg/kg, 0.5 h after iv 5 mg/kg artemisox 6, read-out: Mean iv circulating concentration): 1250 nM
- concentration at 1 h ([4]; male, C57/BL6, mouse, plasma, iv, 5 mg/kg, 1 h after iv 5 mg/kg artemiside 5, read-out: Mean iv circulating concentration): 160 nM
- concentration at 1 h ([4]; male, C57/BL6, mouse, plasma, iv, 5 mg/kg, 1 h after iv 5 mg/kg artemisone 7, read-out: Mean iv circulating concentration): 831 nM
- concentration at 1 h ([4]; male, C57/BL6, mouse, plasma, iv, 5 mg/kg, 1 h after iv 5 mg/kg artemisox 6, read-out: Mean iv circulating concentration): 659 nM
- concentration at 3 h ([4]; male, C57/BL6, mouse, plasma, iv, 5 mg/kg, 3 h after iv 5 mg/kg artemiside 5, read-out: Mean iv circulating concentration): 12 nM
- concentration at 3 h ([4]; male, C57/BL6, mouse, plasma, iv, 5 mg/kg, 3 h after iv 5 mg/kg artemisone 7, read-out: Mean iv circulating concentration): 28 nM
- concentration at 3 h ([4]; male, C57/BL6, mouse, plasma, iv, 5 mg/kg, 3 h after iv 5 mg/kg artemisox 6, read-out: Mean iv circulating concentration): 7 nM
- concentration at 5 h ([4]; male, C57/BL6, mouse, plasma, iv, 5 mg/kg, 5 h after iv 5 mg/kg artemiside 5, read-out: Mean iv circulating concentration): 5 nM

From publication PMC8704606, “The Artemiside-Artemisox-Artemisone-M1 Tetrad: Efficacies against Blood Stage P. falciparum Parasites, DMPK Properties, and the Case for Artemiside” (Pharmaceutics, 2021)
